In article PMC8219695 (Nature Communications, 2021):
Values joined by “and” are separate entries in the source; they are usually repeats but may differ in a detail not shown here. Identical values can stand only once.

Assays:
rKOR = target: T1, rKOR (Rattus norvegicus, UniProt P34975); experiment: CAMYEL BRET cAMP agonist assay at rKOR; assay type: cell-based; settings: individual replicates, Supplementary Figure 8B source data
T1 construct: expressed in transfected cells

mKOR = target: T2, mKOR (Mus musculus, UniProt P33534); experiment: [125I]BNtxA radioligand competition binding, mouse KOR; settings: mean ± SEM, n = 3; [125I]BNtxA; read-out: Ki ± SEM mKOR
T2 construct: expressed in transfected cells; membranes

hKOR = hKOR (Homo sapiens, UniProt P41145); experiment: CAMYEL BRET cAMP agonist assay at hKOR; assay type: cell-based; settings: individual replicates, Supplementary Figure 8A source data
mMOR [1] = target: T3, mMOR (Mus musculus, UniProt P42866); experiment: CAMYEL BRET antagonism assay at mMOR (inhibition of DAMGO); assay type: cell-based; settings: for Antagonist activity at mMOR, raw signal (single replicate values): source data of Fig 8a and Table 5, listed as C11-Br-7OH (24);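 as to Antagonist activity at mMOR, raw signal (single replicate values): BRET signal rises as cAMP falls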
T3 construct: signal peptide (heterologous, not specified) (N); expressed in transfected cells; pcDNA3.1(+) construct made in house

mMOR [2] = target: T3, mMOR; experiment: [125I]BNtxA radioligand competition binding, mouse MOR; settings: mean ± SEM, n = 3; [125I]BNtxA; read-out: Ki ± SEM mMOR
hDOR = hDOR (Homo sapiens, UniProt P41143); experiment: CAMYEL BRET cAMP agonist assay at hDOR; assay type: cell-based; settings: for Agonist activity of 7OH analogs at hDOR: single replicate values, Supplementary Figure 7A
mDOR = target: T4, mDOR (Mus musculus, UniProt P32300); experiment: [125I]BNtxA radioligand competition binding, mouse DOR; settings: mean ± SEM, n = 3; [125I]BNtxA; read-out: Ki ± SEM mDOR
T4 construct: expressed in transfected cells

In the case of `CC[C@@H]1CN2CC[C@@]3(O)C(=Nc4cc(Br)cc(OC)c43)[C@@H]2C[C@@H]1/C(=C\OC)C(=O)OC` [11-Br-7OH (24), 11-Br-7OH], the “Agonist activity of 7OH analogs at rKOR” value (rKOR; Log [drug](M) -8) is reported as 15.8006 and 9.743 and 5.004 and 1.565 and 3.381 and -4.9468 and 4.551 and 0.2655 and 16.2208, the “Agonist activity of 7OH analogs at rKOR” value (rKOR; Log [drug](M) -9) is reported as 2.391 and 0.4693 and -2.7298 and 8.844 and 10.6443 and -8.128 and 0.4192 and -1.635 and 9.514 and the “Agonist activity of 7OH analogs at rKOR” value (rKOR; Log [drug](M) -10) is reported as -3.09 and -6.057 and 13.4494 and 16.7517 and 7.424 and 2.462 and 3.397 and 1.924 and 5.164. For the same compound, the “Agonist activity of 7OH analogs at rKOR” value (rKOR; Log [drug](M) -11) was -9.158 and 9.8247 and 5.5119 and -1.702 and 25.9779 and 16.6823 and 6.047 and 6.143 and 5.108, the “Agonist activity of 7OH analogs at rKOR” value (rKOR; Log [drug](M) -13) was -5.115 and 8.484 and 8.583 and 29.3433 and 7.52 and 9.7517 and 3.9044 and 5.761 and 8.186 and the Ki (mKOR) was 81.1 ± 7.1 nM. For the same compound, the “Agonist activity of 7OH analogs at hKOR” value (hKOR; Log [drug](M) -5) was 10.9149 and -7.215 and 4.286 and 11.8421 and 11.499 and 10.9733 and -4.579 and 2.634 and 3.416, the “Agonist activity of 7OH analogs at hKOR” value (hKOR; Log [drug](M) -6) was 3.035 and -0.7724 and -13.4731 and 3.219 and -0.695 and 8.186 and -5.571 and -3.171 and 0.4347 and the “Agonist activity of 7OH analogs at hKOR” value (hKOR; Log [drug](M) -7) was -0.1722 and -16.4342 and -16.1746 and -2.26 and -3.79 and -3.25 and 0.1411 and 2.3 and 5.19. The “Agonist activity of 7OH analogs at hKOR” value (hKOR; Log [drug](M) -8) was 22.3379 and -4.57 and 1.209 and 8.576 and -8.308 and -4.317 and 11.4126 and 9.041 and 4.453, the “Agonist activity of 7OH analogs at hKOR” value (hKOR; Log [drug](M) -9) was 2.393 and 14.1276 and 3.431 and 19.0489 and 8.55 and -5.559 and -3.604 and -6.454 and -4.21 and the “Agonist activity of 7OH analogs at hKOR” value (hKOR; Log [drug](M) -10) was -9.31 and -5.502 and 19.956 and 11.266 and -0.5812 and -7.816 and -4.981 and -0.9266 and -11.4459. The “Agonist activity of 7OH analogs at hKOR” value (hKOR; Log [drug](M) -11) was 21.966 and -9.511 and 21.9409 and -12.3295 and 2.605 and 7.521 and 2.85 and -2.233 and 3.089, the “Agonist activity of 7OH analogs at hKOR” value (hKOR; Log [drug](M) -13) was -3.621 and -4.92 and 8.541 and 7.349 and -4.448 and -2.901 and 2.036 and -3.052 and 1.015 and the IC50 (mMOR [1]) was 550 nM. For the same compound, the “Antagonist activity at mMOR, raw signal (single replicate values)” value (from here on “Antagonist activity at mMOR, raw signal”) (mMOR [1]; Log[drug] (M) -5) was 0.01588 and 0.02679 and 0.02408 and 0.03029 and 0.008675 and 0.02853 and 0.02577 and 0.02856 and 0.04207, the “Antagonist activity at mMOR, raw signal” value (mMOR [1]; Log[drug] (M) -6) was 0.07568 and 0.07832 and 0.06492 and 0.08421 and 0.0634 and 0.06872 and 0.08325 and 0.0829 and 0.07977 and the “Antagonist activity at mMOR, raw signal” value (mMOR [1]; Log[drug] (M) -7) was 0.1777 and 0.1753 and 0.1839 and 0.1921 and 0.1726 and 0.1908 and 0.1553 and 0.1528 and 0.1604. The “Antagonist activity at mMOR, raw signal” value (mMOR [1]; Log[drug] (M) -8) was 0.2079 and 0.2137 and 0.206 and 0.2077 and 0.2162 and 0.1891 and 0.1751 and 0.1625 and 0.1706, the “Antagonist activity at mMOR, raw signal” value (mMOR [1]; Log[drug] (M) -9) was 0.1949 and 0.206 and 0.225 and 0.1941 and 0.2008 and 0.2159 and 0.1687 and 0.1594 and 0.1786 and the “Antagonist activity at mMOR, raw signal” value (mMOR [1]; Log[drug] (M) -10) was 0.1894 and 0.2034 and 0.2214 and 0.2024 and 0.209 and 0.1982 and 0.1754 and 0.1654 and 0.1797. The “Antagonist activity at mMOR, raw signal” value (mMOR [1]; Log[drug] (M) -11) was 0.2409 and 0.2089 (2×) and 0.2025 and 0.1938 and 0.2023 and 0.1798 and 0.1667 and 0.1739, the Ki (mMOR [2]) was 32.4 ± 1.4 nM and the “Agonist activity of 7OH analogs at hDOR” value (hDOR; Log[drug] (M) -5) was 4.7 and 25.3039 and 6.573 and 24.0158 and 10.0458 and 10.1909 and 12.9945 and 10.3075. For the same compound, the “Agonist activity of 7OH analogs at hDOR” value (hDOR; Log[drug] (M) -6) was 13.1842 and 10.2252 and 8.595 and 5.73 and 12.7267 and 14.3479 and 6.336 and 13.8749, the “Agonist activity of 7OH analogs at hDOR” value (hDOR; Log[drug] (M) -7) was 14.5317 and -1.155 and 1.334 and 28.0039 and 13.2568 and 5.897 and 5.1203 and 15.4297 and the “Agonist activity of 7OH analogs at hDOR” value (hDOR; Log[drug] (M) -8) was 10.6504 and 18.084 and 4.153 and 20.0173 and 1.0999 and 15.8027 and 12.7278 and 11.7823 and 20.1626. For the same compound, the “Agonist activity of 7OH analogs at hDOR” value (hDOR; Log[drug] (M) -9) was 19.553 and 11.3403 and 28.4089 and 9.179 and -1.427 and -6.158 and 5.452 and 0.7244 and 17.3106, the “Agonist activity of 7OH analogs at hDOR” value (hDOR; Log[drug] (M) -10) was 3.839 and 3.779 and 7.219 and -2.673 and 3.726 and -0.9121 and -0.9075 and -0.119 and 1.027 and the “Agonist activity of 7OH analogs at hDOR” value (hDOR; Log[drug] (M) -11) was 6.722 and 21.7822 and 0.8452 and 0.831 and -3.07 and 2.24 and 15.2814 and 3.682 and 0.8607. The “Agonist activity of 7OH analogs at hDOR” value (hDOR; Log[drug] (M) -13) was -12.8405 and 3.455 and 9.386 and 2.252 and 8.162 and 14.0199 and 6.2368 and 9.608 and 10.0864, the Emax (hDOR; hDOR cAMP BRET, positive control DPDPE) was “very low efficacy” and the Ki (mDOR) was 57.7 ± 6.7 nM.
